Experimental data as given in publication PMC7780349 (Cell, 2020).
≈ marks a conversion by molar mass, not a printed value. Read-outs that look alike come from different tables or passages of the source.

What was measured:
[1] = tested on: E. coli lptD4213; test: Membrane potential and permeability assay; conditions: E. coli lptD4213, 15 min treatment
[2] = molecular target: E. coli dihydrofolate reductase (FolA) (Escherichia coli, UniProt P0ABQ4); test: Dihydrofolate reductase activity assay; assay type: biochemical
[3] = tested on: S. aureus MRSA USA300; test: Minimum inhibitory concentration assay
[4] = tested on: B. subtilis 168; test: Minimum inhibitory concentration assay; assay type: cell-based
[5] = tested on: B. subtilis dfrA and folC CRISPRi knockdown mutants; assay type: cell-based; conditions: growth (OD600) after 14 h relative to DMSO
[6] = tested on: A. baumannii AB17978; test: Minimum inhibitory concentration assay
[7] = tested on: E. coli lptD4213; test: Minimum inhibitory concentration assay; conditions: for MIC: concentration printed as 1× MIC
[8] = Maximal tolerated dose in mice; assay type: in vivo; conditions: intravenously
[9] = tested on: N. gonorrhoeae ATCC 700825; test: Neisseria gonorrhea vaginal infection model; assay type: in vivo, BALB/c mice; conditions: 10 mg/kg i.v. at 2 and 14 h post-infection, CFUs at 26 h; p < 0.05 vs vehicle
[10] = tested on: mammalian cells (HEK293, HK-2, HLF, PBMC)
[11] = Mouse liver microsomal stability; assay type: in vitro ADME; conditions: 2 μM, 0.5 mg/mL microsomes, NADPH and UDPGA, 1 hour; compared to verapamil
[12] = tested on: PBMC; test: Mammalian cell cytotoxicity; assay type: cell-based; conditions: 72 hours
[13] = tested on: N. gonorrhoeae; test: Minimum inhibitory concentration assay; conditions: bacterial culture
[14] = molecular target: dihydrofolate reductase (FolA) (Escherichia coli, UniProt P0ABQ4); test: Thermal proteome profiling; assay type: binding; conditions: E. coli lptD4213 intact cells and cell lysates
[15] = tested on: P. aeruginosa; test: Minimum inhibitory concentration assay
[16] = tested on: MRSA USA300; test: Isolation of resistant mutants by plating on drug agar; assay type: cell-based, Staphylococcus aureus; conditions: ~10^8 CFU on agar with 25 μg/mL SCH-79797 (4X MIC)
[17] = tested on: A. baumannii AB17978; test: Serial passaging assay to evolve resistance; assay type: cell-based, Acinetobacter baumannii
[18] = tested on: G. mellonella; test: Galleria mellonella host toxicity; assay type: in vivo; conditions: injection at four times the MIC toward A. baumannii
[19] = tested on: S. aureus MRSA USA300; test: Serial passaging assay to evolve resistance; assay type: cell-based, Staphylococcus aureus; conditions: S. aureus MRSA USA300, 25 days, sub-lethal concentrations
[20] = tested on: E. coli NCM3722; test: Minimum inhibitory concentration assay; assay type: cell-based; conditions: Escherichia coli
[21] = tested on: E. coli lptD4213; test: Colony forming units assay; assay type: cell-based; conditions: E. coli lptD4213, 3-h treatment, 2× MIC
[22] = tested on: E. coli lptD4213 ΔthyA; test: Growth of wild-type and ΔthyA cells with thymine; assay type: cell-based; conditions: excess thymine in the medium
[23] = tested on: B. subtilis; test: Isolation of resistant mutants by plating; assay type: cell-based; conditions: ~10^8 CFUs
[24] = tested on: HK-2; assay type: cell-based
[25] = tested on: S. aureus MRSA USA300 persister cells; test: S. aureus MRSA persister cell assay; assay type: cell-based, Staphylococcus aureus; conditions: 2 h treatment
[26] = tested on: E. cloacae; test: Minimum inhibitory concentration assay
[27] = tested on: A. baumannii AB17978; test: Galleria mellonella killing assay; assay type: in vivo; conditions: lethal dose of A. baumannii AB17978; 67 μg/larva; p < 0.001
[28] = tested on: HLF; assay type: cell-based
[29] = tested on: HEK293; assay type: cell-based
[30] = tested on: folate metabolite pools in E. coli NCM3722; test: Metabolomics of folate metabolite pools; assay type: cell-based; conditions: 13.9 μg/mL (1× MIC), 15 min
[31] = animals; ref Gobbetti et al., 2012; Strande et al., 2007; cited from earlier work

E. coli dihydrofolate reductase (FolA), sequence (P0ABQ4 whole entry): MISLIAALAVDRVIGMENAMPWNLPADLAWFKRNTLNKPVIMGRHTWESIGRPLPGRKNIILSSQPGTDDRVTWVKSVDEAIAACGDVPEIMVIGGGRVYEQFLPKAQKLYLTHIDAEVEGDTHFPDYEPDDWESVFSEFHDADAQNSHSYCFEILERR
dihydrofolate reductase (FolA), sequence (P0ABQ4 whole entry): as above

**Q.** For `N#CC(C#N)=NNc1cccc(Cl)c1` [CCCP], which “membrane potential and permeability (DiOC2(3) and TO-PRO-3 staining)” value (“membrane potential and permeability” for short) [1] is on record?
**A.** expected shifts in both DiOC2(3) and TO-PRO-3 staining

**Q.** What does the source list for `Nc1nc(N)c2c(ccc3[nH]ccc32)n1` [IRS-10]?
**A.** membrane potential and permeability (DiOC2(3) and TO-PRO-3 staining) [1]: does not disrupt membrane polarity or permeability; IC50 ([2]; read-out: IC50 against FolA, 60 μM NADPH and 100 μM DHF, Hill fit): 0.065 ± 0.019 µM; potency compared to the parent molecule SCH-79797 ([3]; MRSA USA300): decreased the potency; potency compared to the parent molecule SCH-79797 ([4]; B. subtilis 168): decreased the potency; sensitivity of dfrA and folC CRISPRi knockdowns [5]: maintains the ability to inhibit folate metabolism; potency compared to the parent molecule SCH-79797 [6]: decreased the potency; potency compared to the parent molecule SCH-79797 [7]: increased the potency; MIC [7]: 0.4 µg/mL (≈ 2.01 µM)

**Q.** For `Nc1nc(N)c2c(ccc3c2ccn3Cc2ccc(-c3ccccc3)cc2)n1` [IRS-16], which “membrane potential and permeability” value [1] is on record?
**A.** disrupted membrane permeability and polarity

**Q.** What about the “maximal tolerated dose (MTD)” value [8] of the same compound?
**A.** 15 mg/kg

**Q.** What about the “vaginal load of N. gonorrhoeae (CFU)” value [9] of the same compound?
**A.** significantly reduced the vaginal load

**Q.** And the “increase of therapeutic window relative to SCH-79797” value [10]?
**A.** > 100 fold

**Q.** And the adverse effects (male CD-1 mice, single i.v. dose 15 mg/kg)?
**A.** no adverse effects

**Q.** What about the “time at concentrations above the N. gonorrhoeae MIC” value (mice, 15 mg/kg i.v., MIC 0.03 μg/mL) of the same compound?
**A.** ~48 h

**Q.** And the half-life (mouse, in vivo, iv, 15 mg/kg)?
**A.** 15.8 h

**Q.** And the “stability in mouse liver microsomes” value [11]?
**A.** extremely stable

**Q.** And the “MIC against PBMC” value [12]?
**A.** greater than the maximal drug concentrations tested

**Q.** And the “sensitivity of dfrA and folC CRISPRi knockdowns” value [5]?
**A.** hypersensitive

**Q.** And the MIC [7]?
**A.** 0.02 µg/mL (≈ 0.0547 µM)

**Q.** And the MIC [13]?
**A.** 0.03 µg/mL (≈ 0.0821 µM)

**Q.** For `CC(C)c1ccc(Cn2ccc3c4c(N)nc(NC5CC5)nc4ccc32)cc1` [SCH-79797, N3-cyclopropyl-7-[[4-(1-methylethyl)phenyl]methyl]-7H-pyrrolo[3,2-f]quinazoline-1,3-diamine], which “membrane potential and permeability” value [1] is on record?
**A.** significant defects in both membrane polarization and permeability

**Q.** What about the IC50 [2] of the same compound?
**A.** 8.6 ± 3 µM

**Q.** And the “thermal stability of dihydrofolate reductase (FolA)” value [14]?
**A.** significantly shifted the thermal stability

**Q.** And the MIC [15]?
**A.** greater the maximal drug concentrations tested

**Q.** And the “isolation of resistant mutants on plating” value [16]?
**A.** unable to isolate stable SCH-79797-resistant mutants

**Q.** And the “resistance on serial passaging” value [17]?
**A.** resistance remained constant

**Q.** And the host toxicity [18]?
**A.** did not result in higher host toxicity than the solvent-only control

**Q.** What about the “resistance on serial passaging” value [19] of the same compound?
**A.** no SCH-79797-resistant mutants emerged

**Q.** What about the MIC ([3]; Staphylococcus aureus, MRSA|USA300) of the same compound?
**A.** 6.3 µg/mL (≈ 17 µM)

**Q.** What about the MIC [20] of the same compound?
**A.** 13.9 µg/mL (≈ 37.4 µM)

**Q.** What about the MIC ([4]; Bacillus subtilis, 168) of the same compound?
**A.** 3.1 µg/mL (≈ 8.34 µM)

**Q.** And the “bactericidal activity (CFU)” value [21]?
**A.** potent and rapid bactericidal activity

**Q.** What about the “sensitivity of ΔthyA versus wild-type cells” value [22] of the same compound?
**A.** no change in sensitivity

**Q.** What about the “isolation of resistant mutants on plating” value [23] of the same compound?
**A.** unable to isolate SCH-79797-resistant mutants

**Q.** What about the “growth inhibition of mammalian cells relative to antibacterial dose” value [24] of the same compound?
**A.** at doses comparable to the doses needed to kill bacteria

**Q.** And the “sensitivity of dfrA and folC CRISPRi knockdowns” value [5]?
**A.** sensitized

**Q.** And the “viability of persister cells (CFU)” value [25]?
**A.** robustly killed these persister cells

**Q.** And the MIC [26]?
**A.** greater the maximal drug concentrations tested

**Q.** What about the “survival of infected larvae” value [27] of the same compound?
**A.** significantly prolonged the survival

**Q.** And the “growth inhibition of mammalian cells relative to antibacterial dose” value [28]?
**A.** at doses comparable to the doses needed to kill bacteria

**Q.** What about the “growth inhibition of mammalian cells relative to antibacterial dose” value [29] of the same compound?
**A.** at doses comparable to the doses needed to kill bacteria

**Q.** What about the “rise of 7,8-dihydrofolate (DHF) level compared to untreated cells” value [30] of the same compound?
**A.** ~ 10 fold

**Q.** And the safely tolerated dose [31]?
**A.** at least 5 mg/kg

**Q.** What does the source list for `CC(C)c1ccccc1` [isopropylbenzene]?
**A.** membrane potential and permeability (DiOC2(3) and TO-PRO-3 staining) [1]: disrupts both membrane polarity and permeability; sensitivity of dfrA and folC CRISPRi knockdowns [5]: no effect

**Q.** For `CO[C@@H]1[C@@H](OC(N)=O)[C@@H](O)[C@H](Oc2ccc3c(O)c(NC(=O)c4ccc(O)c(CC=C(C)C)c4)c(=O)oc3c2C)OC1(C)C` [novobiocin], which “membrane potential and permeability” value [1] is on record?
**A.** do not shift DiOC2(3) or TO-PRO-3 staining

**Q.** What about the “resistance on serial passaging” value [19] of the same compound?
**A.** resistance gradually increased

**Q.** With `CO[C@H]1/C=C/O[C@@]2(C)Oc3c(C)c(O)c4c(O)c(c(/C=N/N5CCN(C)CC5)c(O)c4c3C2=O)NC(=O)/C(C)=C\C=C\[C@H](C)[C@H](O)[C@@H](C)[C@@H](O)[C@@H](C)[C@H](OC(C)=O)[C@@H]1C` [rifampicin] as the compound, how does the “membrane potential and permeability” value [1] read?
**A.** do not shift DiOC2(3) or TO-PRO-3 staining

**Q.** With `COc1cc(Cc2cnc(N)nc2N)cc(OC)c1OC` [trimethoprim] as the compound, how does the “membrane potential and permeability” value [1] read?
**A.** no significant changes in DiOC2(3) and TO-PRO-3 staining

**Q.** What about the MIC [20] of the same compound?
**A.** 0.15 µg/mL (≈ 0.517 µM)

**Q.** What about the “sensitivity of ΔthyA versus wild-type cells” value [22] of the same compound?
**A.** led to trimethoprim resistance

**Q.** And the “sensitivity of dfrA and folC CRISPRi knockdowns” value [5]?
**A.** hypersensitive

**Q.** For daptomycin, which “viability of persister cells (CFU)” value [25] is on record?
**A.** did not reduce the number of CFUs

**Q.** With nisin as the compound, how does the “membrane potential and permeability” value [1] read?
**A.** expected shifts in both DiOC2(3) and TO-PRO-3 staining

**Q.** And the “resistance on serial passaging” value [19]?
**A.** resistance gradually increased

**Q.** Which “membrane potential and permeability” value [1] does the source give for polymyxin B here?
**A.** expected shifts in both DiOC2(3) and TO-PRO-3 staining
